{"source": "patent US11850246B2", "about": "“Method for treatment of cytokine release syndrome” (NOVMETAPHARMA CO., LTD., priority 2020, dated 2023)", "key": {"[1]": {"system": "macrophage", "test": "Anti-inflammatory effect on LPS-activated macrophage: activation surface markers by flow cytometry", "assay_type": "cell-based", "settings": "5 μM compound; macrophage activated with 100 ng/mL LPS; 24 hours after LPS treatment; flow cytometry (FIG. 1A-1C)", "description": "Dysregulation of immune activation in innate immune cell is the main factor initiating cytokine release syndrome. Immune regulatory effects of the compound of Chemical Formula 1 on macrophage were assessed employing compound 18a (DMRC200434). 5 μM DMRC200434 was treated on activated macrophage with 100 ng/mL lipopolysaccharide (LPS) (Sigma-Aldrich). 24 hours after LPS treatment, activation markers (CD40, CD80, CD86) were measured by flow cytometry."}, "[2]": {"system": "LPS induced endotoxemia model", "test": "LPS induced endotoxemia model, survival", "assay_type": "in vivo, C57BL/6 mice", "settings": "30 mg/kg injected 24 hours prior to and at start of LPS (50 mg/kg) injection; survival observed for 50 hours (FIG. 2)", "description": "6 to 8-week female C57BL/6 mice (Jackson Lab) were used according to an animal protocol approved by the Institutional Animal Care and Use Committee of Kyungpook National University.\nCompound of Chemical Formula 1 (DMRC200434, 30 mg/kg) was dissolved in a solution of 5%—DMSO: 95%—20% PEG400(Saline) and was injected at two points—at 24 hours prior to, and at the start of LPS (50 mg/kg) injection.\nThe inventors analyzed the efficacy of a compound of Chemical Formula 1 in vivo on LPS-induced endotoxemia model employing DMRC200434. To assess the effect of DMRC200434 on endotoxemia, DMRC200434 was treated on LPS induced endotoxemia model."}}, "data": [{"smiles": "CC(C)N1CCN(c2ccc(/C(=C(/CCCO)c3ccccc3)c3ccc(O)cc3)cc2)CC1", "note": "[DMRC200434, (E)-5-(4-hydroxyphenyl)-5-(4-(4-isopropylpiperazin-1-yl)phenyl)-4-phenylpent-4-en-1-ol]", "values": [{"measurement": "expression of inflammatory surface marker CD40", "setting": "[1]", "result": "downregulated"}, {"measurement": "expression of inflammatory surface marker CD80", "setting": "[1]", "result": "downregulated"}, {"measurement": "expression of inflammatory surface marker CD86", "setting": "[1]", "result": "downregulated"}, {"measurement": "endotoxin mediated death (survival)", "setting": "[2]", "result": "significantly delayed"}]}]}
